Like-named read-outs stand apart in the source and are kept apart here.
How the values were obtained:
Assay type in all cases: in vivo
[1] = tested on: Mycosphaerella graminicola; Anamorph: Septoria tritici; assay: Leaf blotch of wheat (SEPTTR) fungicidal activity on wheat seedlings; settings: Zymoseptoria tritici
Procedure: Evaluation of Fungicidal Activity: Leaf Blotch of Wheat (Mycosphaerella Graminicola; Anamorph: Septoria tritici; Bayer Code […]) Technical grades of materials were dissolved in acetone, which were then mixed with nine volumes of water containing 110 ppm Triton X-100. The fungicide solutions were applied onto wheat seedlings using an automated booth sprayer to run-off. All sprayed plants were allowed to air dry prior to further handling. Wheat plants (variety Yuma) were grown from seed in a greenhouse in 50% mineral soil/50% soil-less Metro mix until the first leaf was fully emerged, with 7-10 seedlings per pot. These plants were inoculated with an aqueous spore suspension of Septoria tritici either prior to or after fungicide treatments. After inoculation the plants were kept in 100% relative humidity (one day in a dark dew chamber followed by two to three days in a lighted dew chamber at 20° C.) to permit spores to germinate and infect the leaf. The plants were then transferred to a greenhouse set at 20° C. for disease to develop. When disease symptoms were fully expressed on the 1st leaves of untreated plants, infection levels were assessed on a scale of 0 to 100 percent disease severity. Percent disease control was calculated using the ratio of disease severity on treated plants relative to untreated plants.

Alternaria solani = assay: Tomato early blight (ALTESO) fungicidal activity; settings: 24 h, 1 Day Protectant, read-out: Disease Control ALTESO 1DP
Procedure: Technical grades of materials were dissolved in acetone, which were then mixed with nine volumes of water containing 110 ppm Triton X-100. The fungicide solutions were applied onto wheat seedlings using an automated booth sprayer to run-off. All sprayed plants were allowed to air dry prior to further handling. Wheat plants (variety Yuma) were grown from seed in a greenhouse in 50% mineral soil/50% soil-less Metro mix until the first leaf was fully emerged, with 7-10 seedlings per pot. These plants were inoculated with an aqueous spore suspension of Septoria tritici either prior to or after fungicide treatments. After inoculation the plants were kept in 100% relative humidity (one day in a dark dew chamber followed by two to three days in a lighted dew chamber at 20° C.) to permit spores to germinate and infect the leaf. The plants were then transferred to a greenhouse set at 20° C. for disease to develop. When disease symptoms were fully expressed on the 1st leaves of untreated plants, infection levels were assessed on a scale of 0 to 100 percent disease severity. Percent disease control was calculated using the ratio of disease severity on treated plants relative to untreated plants. Evaluation of Fungicidal Activity: Tomato Early Blight (Alternaria Solani; Bayer Code […]) Tomato plants (variety Outdoor girl) were propagated in soil-less Metro mix, with each pot having one plant, and used when 12 to 14 days old. Test plants were inoculated with an aqueous spore suspension of Alternaria solani 24 hr after fungicide treatments. After inoculation the plants were kept in 100% relative humidity (one day in a dark dew chamber followed by two to three days in a lighted dew chamber at 20° C.) to permit spores to germinate and infect the leaf. The plants were then transferred to a growth room at 22° C. for disease to develop. Fungicide formulation, application and disease assessment on the sprayed leaves followed the procedures as described in the Example A.

Leptosphaeria nodorum = assay: Wheat glume blotch (LEPTNO) fungicidal activity; settings: Parastagonospora nodorum, 24 h, 1 Day Protectant, read-out: Disease Control LEPTNO 1DP
Procedure: Technical grades of materials were dissolved in acetone, which were then mixed with nine volumes of water containing 110 ppm Triton X-100. The fungicide solutions were applied onto wheat seedlings using an automated booth sprayer to run-off. All sprayed plants were allowed to air dry prior to further handling. Wheat plants (variety Yuma) were grown from seed in a greenhouse in 50% mineral soil/50% soil-less Metro mix until the first leaf was fully emerged, with 7-10 seedlings per pot. These plants were inoculated with an aqueous spore suspension of Septoria tritici either prior to or after fungicide treatments. After inoculation the plants were kept in 100% relative humidity (one day in a dark dew chamber followed by two to three days in a lighted dew chamber at 20° C.) to permit spores to germinate and infect the leaf. The plants were then transferred to a greenhouse set at 20° C. for disease to develop. When disease symptoms were fully expressed on the 1st leaves of untreated plants, infection levels were assessed on a scale of 0 to 100 percent disease severity. Percent disease control was calculated using the ratio of disease severity on treated plants relative to untreated plants. Evaluation of Fungicidal Activity: Wheat Glume Blotch (Leptosphaeria Nodorum; Bayer Code […]) Wheat plants (variety Yuma) were grown from seed in a greenhouse in 50% mineral soil/50% soil-less Metro mix until the first leaf was fully emerged, with 7-10 seedlings per pot. These plants were inoculated with an aqueous spore suspension of Leptosphaeria nodorum 24 hr after fungicide treatments. After inoculation the plants were kept in 100% relative humidity (one day in a dark dew chamber followed by two days in a lighted dew chamber at 20° C.) to permit spores to germinate and infect the leaf. The plants were then transferred to a greenhouse set at 20° C. for disease to develop. Fungicide formulation, application and disease assessment followed the procedures as described in the Example A.

[2] = tested on: Blumeria graminis f. sp. hordei; assay: Barley powdery mildew (ERYSGH) fungicidal activity; settings: 24 h, 1 Day Protectant, read-out: Disease Control ERYSGH 1DP
Procedure: Technical grades of materials were dissolved in acetone, which were then mixed with nine volumes of water containing 110 ppm Triton X-100. The fungicide solutions were applied onto wheat seedlings using an automated booth sprayer to run-off. All sprayed plants were allowed to air dry prior to further handling. Wheat plants (variety Yuma) were grown from seed in a greenhouse in 50% mineral soil/50% soil-less Metro mix until the first leaf was fully emerged, with 7-10 seedlings per pot. These plants were inoculated with an aqueous spore suspension of Septoria tritici either prior to or after fungicide treatments. After inoculation the plants were kept in 100% relative humidity (one day in a dark dew chamber followed by two to three days in a lighted dew chamber at 20° C.) to permit spores to germinate and infect the leaf. The plants were then transferred to a greenhouse set at 20° C. for disease to develop. When disease symptoms were fully expressed on the 1st leaves of untreated plants, infection levels were assessed on a scale of 0 to 100 percent disease severity. Percent disease control was calculated using the ratio of disease severity on treated plants relative to untreated plants. Evaluation of Fungicidal Activity: Barley Powdery Mildew (Blumeria Graminis f. sp. Hordei; Synonym: Erysiphe Graminis f. sp. Hordei; Bayer Code […]) Barley seedlings (variety Harrington) were propagated in soil-less Metro mix, with each pot having 8 to 12 plants, and used in the test when first leaf was fully emerged. Test plants were inoculated by dusting with infected stock plants 24 hr after fungicide treatments. After inoculation the plants were kept in a greenhouse set at 20° C. for disease to develop. Fungicide formulation, application and disease assessment on the sprayed leaves followed the procedures as described in the Example A.

[3] = 24 h, 1 Day Protectant, read-out: Disease Control SEPTTR 1 DP
[4] = 72 h, 3 Day Curative, read-out: Disease Control SEPTTR 3 DC

SMILES | pest or weed control at 100 ppm [1, 3] | pest or weed control at 100 ppm [1, 4] | pest or weed control at 100 ppm (Alternaria solani) | pest or weed control at 100 ppm (Leptosphaeria nodorum) | pest or weed control at 100 ppm [2]
COc1ccnc(C(=O)N[C@H]2COC[C@H](Cc3ccccc3)[C@@H](OCC(C)C)[C@H](C)OC2=O)c1O [Compound 2, N-((3S,7S,8R,9S)-7-benzyl-8-isobutoxy-9-methyl-2-oxo-1,5-dioxonan-3-yl)-3-hydroxy-4-methoxypicolinamide] | 80 to 100% | 80 to 100% | – | – | –
COc1ccnc(C(=O)N[C@H]2COC[C@H](Cc3ccccc3)[C@@H](OCC(C)C)[C@H](C)OC2=O)c1OCOC(=O)C(C)C [Compound 3] | 80 to 100% | 80 to 100% | 80 to 100% | 80 to 100% | 80 to 100%
COc1ccnc(C(=O)N[C@H]2COC[C@H](Cc3ccccc3)[C@@H](OCC(C)C)[C@H](C)OC2=O)c1OCOC(=O)C(C)(C)C [Compound 7] | 80 to 100% | 80 to 100% | 80 to 100% | 80 to 100% | 80 to 100%
COc1ccnc(C(=O)N[C@H]2COC[C@H](Cc3ccccc3)[C@@H](OCC(C)C)[C@H](C)OC2=O)c1OCOC(C)=O [Compound 8, (2-((3S,7S,8R,9S)-7-benzyl-8-isobutoxy-9-methyl-2-oxo-1,5-dioxonan-3-ylcarbamoyl)-4-methoxypyridin-3-yloxy)methyl acetate] | 80 to 100% | 80 to 100% | 80 to 100% | 80 to 100% | 80 to 100%
COc1ccnc(C(=O)N[C@H]2COC[C@H](Cc3ccccc3)[C@@H](OCC(C)C)[C@H](C)OC2=O)c1OC(C)=O [Compound 9, 2-(((3S,7S,8R,9S)-7-benzyl-8-isobutoxy-9-methyl-2-oxo-1,5-dioxonan-3-yl)carbamoyl)-4-methoxypyridin-3-yl acetate] | 80 to 100% | 80 to 100% | 80 to 100% | 80 to 100% | 80 to 100%
COc1ccnc(C(=O)N[C@H]2COC[C@H](Cc3ccccc3)[C@@H](OCC(C)C)[C@H](C)OC2=O)c1OC(=O)OC(C)C [Compound 10, 2-(((3S,7S,8R,9S)-7-benzyl-8-isobutoxy-9-methyl-2-oxo-1,5-dioxonan-3-yl)carbamoyl)-4-methoxypyridin-3-yl isopropyl carbonate] | 80 to 100% | 80 to 100% | 0 to 80% | 80 to 100% | 80 to 100%
COc1ccnc(C(=O)N[C@H]2COC[C@H](Cc3ccccc3)[C@@H](OCCC(=O)N(C)C)[C@H](C)OC2=O)c1OCOC(C)=O [Compound 15] | 0 to 80% | 0 to 80% | 0 to 80% | 0 to 80% | –
COCCCO[C@@H]1[C@@H](Cc2ccccc2)COC[C@H](NC(=O)c2nccc(OC)c2OCOC(C)=O)C(=O)O[C@H]1C [Compound 16] | 80 to 100% | 80 to 100% | 80 to 100% | 80 to 100% | 80 to 100%
